Measured values from ChEMBL document CHEMBL4321804, “Myrmenaphthol A, Isolated from a Hawaiian Sponge of the Genus Myrmekioderma” (J Nat Prod, 2019).
Converted amounts (≈) assume the structure as drawn. The source made the active and inactive calls. The calls are words filed in the database; no cut-off is given here.

Tests used:
P388 = test: Cytotoxicity against mouse P388 cells incubated for 72 hrs by MTT assay; format: functional, cell-based; settings: P388, 72 h
[1] = target: T1, Estrogen receptor (Homo sapiens) (UniProt P03372); test: Agonist activity at GST-tagged ER-alpha ligand binding domain (unknown origin) assessed as fluorescein PGC1a coactivator peptide recruitment incubated up to 24 hrs by LanthaScreen TR-FRET co-regulator assay
T1 sequence (whole entry): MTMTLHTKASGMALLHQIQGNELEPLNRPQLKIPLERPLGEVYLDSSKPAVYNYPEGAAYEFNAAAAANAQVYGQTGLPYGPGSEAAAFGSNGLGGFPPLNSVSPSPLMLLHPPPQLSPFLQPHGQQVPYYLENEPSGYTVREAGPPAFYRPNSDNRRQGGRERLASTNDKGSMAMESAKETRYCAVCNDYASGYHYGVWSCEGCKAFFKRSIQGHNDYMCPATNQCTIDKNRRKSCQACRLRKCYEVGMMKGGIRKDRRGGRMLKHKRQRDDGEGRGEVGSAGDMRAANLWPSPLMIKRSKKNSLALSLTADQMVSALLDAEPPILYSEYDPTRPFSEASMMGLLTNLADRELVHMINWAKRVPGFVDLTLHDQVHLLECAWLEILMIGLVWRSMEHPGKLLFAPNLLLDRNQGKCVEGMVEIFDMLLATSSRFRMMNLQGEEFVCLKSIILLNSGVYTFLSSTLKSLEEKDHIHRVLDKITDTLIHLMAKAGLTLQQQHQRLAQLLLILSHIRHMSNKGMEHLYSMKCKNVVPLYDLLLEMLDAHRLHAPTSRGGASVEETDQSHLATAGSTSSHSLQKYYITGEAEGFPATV

HeLa = test: Cytotoxicity against human HeLa cells incubated for 72 hrs by MTT assay; format: functional, cell-based
[2] = target: T1, Estrogen receptor (Homo sapiens); test: Inhibition of 17-beta-estradiol-stimulated human ER alpha-binding domain at 100 uM by LanthaScreen TR-FRET coregulator assay
[3] = target: T1, Estrogen receptor (Homo sapiens); test: Antagonist activity at 17-beta-estradiol-stimulated GST-tagged ER-alpha ligand binding domain (unknown origin) assessed as fluorescein PGC1a coactivator peptide recruitment incubated up to 24 hrs by LanthaScreen TR-FRET co-regulator assay
Estrogen receptor = target: T2, Estrogen receptor (Homo sapiens, UniProt P03372); test: Displacement of [3H]-estradiol from human recombinant estrogen receptor expressed in insect cells incubated for 17 hrs by radioactive receptor binding assay
T2 sequence (P03372 whole entry): T1 sequence (whole entry)

Row | Activity [1] | inhibition [2] [%] | inhibition [3] | IC50 (Estrogen receptor) [nM] | Compound | IC50 (P388) [µg/mL] | IC50 (HeLa) [µg/mL]
1 | inactive | 30 | inactive | 10 | C[C@@H]1C[C@@]12c1ccc3c(ccc4ccc(O)cc43)c1C[C@@H]2O | 4.5 (≈ 15.5 µM) | 0.4 (≈ 1.38 µM)
2 | inactive | 30 | inactive |  | C/C=C1/C(=O)C(O)=C2c3ccc4ccc(O)cc4c3CC[C@@]21C |  | 
